78 molecules from PubChem BioAssay AID504440 (Sanford-Burnham Center for Chemical Genomics, 2011) can be followed below.

“And” between values parts separate entries of the source, which are not always exact repeats. Equal entries are not always repeated. The source made the active and inactive calls.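 Rule for the calls: active = mean IC50 below 5 µM in the confirmatory dose response test; inactive = the rest.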 A value given as a limit tells only on which side of the number the result lay.

This assay concerns AML12 mouse hepatocytes, BODIPY lipid droplet imaging. The assay can be described thus: inhibitors of hepatocyte lipid droplet formation, SAR follow-up, imaging, AML12 mouse hepatocytes, set 2 (AID 504440).
In the case of `COc1cc(CNC(=O)CSc2cc(=O)n(C)c3ccccc23)cc(OC)c1OC`, the IC50 (commonly the point on the concentration scale where inhibition reaches its midpoint) was > 10000 nM (inactive).
As for `COc1ccc(CCNC(=O)COC(=O)c2cc(OC)c(OC)cc2OC)cc1OC`, the figure is > 10000 nM (inactive).
To `COc1ccc(CCNC(=O)c2cc3ccccc3n2C)cc1OC` belongs > 10000 nM (inactive); to `CCOc1cc(CCNC(=O)c2cc3sccc3[nH]2)ccc1OC`, 2190 nM; to `Cn1c(C(=O)NCCc2ccc3c(c2)OCO3)cc2ccccc21`, > 10000 nM (inactive).
In the case of `CCOc1ccc(CCNC(=O)c2cc(-c3ccccc3)c(N3CCOCC3)s2)cc1OCC`, the IC50 is 6.1 nM and 6.39 nM.
As for `CCn1c(C(=O)Nc2ccc(OC)c(OC)c2)cc2sccc21`, the figure is > 10000 nM (inactive); as for `CCOc1ccc(CCNC(=O)CSc2cc(=O)n(C)c3ccccc23)cc1OCC`, 564 nM and 526 nM; as for `Cn1c(=O)cc(SCC(=O)NCCc2ccc3c(c2)OCO3)c2ccccc21`, > 10000 nM (inactive).
For `CCOc1cc(CCNC(=O)COc2cc(=O)n(C)c3ccccc23)ccc1OC`, the IC50 was 8930 nM (inactive).
As for `Cn1c(C(=O)Nc2ccc3c(c2)OCO3)cc2ccsc21`, the figure is > 10000 nM (inactive); as for `CCOc1ccc(CCNC(=O)CCc2nnc3ccc(N4CCCC4)nn23)cc1OCC`, 771 nM.
To `CCOc1cc(CCNC(=O)c2cc3sccc3n2CC)ccc1OC` belongs 63 nM.
To `CCOc1ccc(CCNC(=O)CCc2nnc3ccc(N4CCCCC4)nn23)cc1OCC` belongs 199 nM; to `CCOc1ccc(CCNC(=O)c2cc3ccsc3n2C)cc1OCC`, 138 nM; to `CCOc1ccc(CCNC(=O)CSc2cc(=O)n(C)c3ccccc23)cc1OC`, 3030 nM.
As for `CCOc1ccc(CCNC(=O)COc2cc(=O)n(C)c3ccccc23)cc1OCC`, the IC50 is 945 nM.
To `CCOc1cc(CCNC(=O)c2cc3ccsc3n2C)ccc1OC` belongs 641 nM; to `O=C(NCCc1ccc2c(c1)OCO2)c1cc(-c2ccccc2)c(N2CCOCC2)s1`, 3260 nM; to `COc1ccc(CCNC(=O)c2cc3sccc3n2C)cc1OC`, 8370 nM (inactive).
As for `COc1ccc(CCNC(=O)CSc2cc(=O)n(C)c3ccccc23)cc1OC`, the figure is > 10000 nM (inactive).
For the molecule `CCOc1ccc(CCNC(=O)c2cc3ccsc3n2CC)cc1OC`, the IC50 was 501 nM.
As for `COc1ccc(CCNC(=O)c2cc(-c3ccccc3)c(N3CCOCC3)s2)c(OC)c1OC`, the figure is 88.3 nM.
Take `Cn1c(=O)cc(SCC(=O)NCc2ccc3c(c2)OCO3)c2ccccc21`: the IC50 is > 10000 nM (inactive).
As for `Cn1c(C(=O)NCc2ccc3c(c2)OCO3)cc2ccsc21`, the figure is > 10000 nM (inactive); as for `CCOc1ccc(CCNC(=O)c2cc3sccc3n2CC)cc1OCC`, 39.9 nM; as for `CCn1c(C(=O)NCc2cc(OC)c(OC)c(OC)c2)cc2ccsc21`, 3020 nM.
To `COc1ccc(CNC(=O)c2ccc(N3CCOCC3)s2)cc1OC` belongs > 10000 nM (inactive); to `CCOc1ccc(CCNC(=O)c2cc3sccc3[nH]2)cc1OCC`, 639 nM.
To `CCn1c(C(=O)NCc2cc(OC)c(OC)c(OC)c2)cc2sccc21` belongs 4820 nM; to `CCOc1ccc(CCNC(=O)COC(=O)c2cc(OC)cc(OC)c2)cc1OCC`, 1090 nM; to `COc1cc(CNC(=O)c2cc3ccsc3n2C)cc(OC)c1OC`, > 10000 nM (inactive).
Regarding `CCOc1ccc(CCNC(=O)c2ccc(N3CCOCC3)s2)cc1OCC`, the IC50 is 384 nM.
As for `CCOc1ccc(CCNC(=O)CN2C(=O)c3cccnc3Oc3ccc(C)cc32)cc1OCC`, the figure is 130 nM.
As for `CCOc1ccc(CCNC(=O)c2cc3sc(Cl)cc3n2C)cc1OCC`, the IC50 was 69.7 nM.
As for `CCOc1ccc(CCNC(=O)Cn2cccc2C(=O)c2ccccc2C)cc1OCC`, the figure is 349 nM.
As for `CCOc1ccc(CCNC(=O)c2cc3sccc3n2C)cc1OCC`, the figure is 124 nM; as for `CCn1c(C(=O)Nc2ccc3c(c2)OCO3)cc2sccc21`, > 10000 nM (inactive); as for `Cn1c(=O)cc(SCC(=O)Nc2ccc3c(c2)OCO3)c2ccccc21`, > 10000 nM (inactive).
As for `CCOc1ccc(CCNC(=O)COC(=O)c2ccc(OC)c(OC)c2OC)cc1OCC`, the figure is 37.5 nM; as for `COc1ccc(NC(=O)c2cc3ccsc3n2C)cc1OC`, > 10000 nM (inactive).
Regarding `CCOc1ccc(CCNC(=O)CCC(=O)N2CCOc3ccccc32)cc1OCC`, the IC50 is 199 nM.
As to `CCOc1cc(CCNC(=O)CSc2cc(=O)n(C)c3ccccc23)ccc1OC`, the IC50 was 6380 nM (inactive).
For `CCOc1ccc(CCNC(=O)Cn2nc(C)c3c(C)n(-c4ccccc4)nc3c2=O)cc1OCC`, the IC50 was 187 nM.
To `CCOc1ccc(CCNC(=O)CSc2cc(=O)n(C)c3cc(Cl)ccc23)cc1OCC` belongs 504 nM; to `CCOc1cc(CCNC(=O)c2cc(-c3ccccc3)c(N3CCOCC3)s2)ccc1OC`, 42.8 nM.
To `CCn1c(C(=O)NCCc2ccc(OC)c(OC)c2)cc2ccsc21` belongs 2150 nM; to `COc1ccc(CCNC(=O)c2cc3sc(Cl)cc3n2C)cc1OC`, 7020 nM (inactive); to `CCn1c(C(=O)NCCc2ccc(OC)c(OC)c2)cc2sc(Cl)cc21`, 1350 nM.
Take `COc1ccc(CNC(=O)CSc2cc(=O)n(C)c3ccccc23)cc1OC`: the IC50 was > 10000 nM (inactive).
To `CCn1c(C(=O)NCc2ccc(OC)c(OC)c2)cc2ccsc21` belongs > 10000 nM (inactive); to `CCOc1ccc(CCNC(=O)C2CC=CCC2C(=O)OC(C)C)cc1OCC` (stereo not drawn), 260 nM; to `CCOc1ccc(CCNC(=O)c2cc3ccsc3n2CC)cc1OCC`, 77.9 nM.
On to `CCn1c(C(=O)Nc2ccc(OC)c(OC)c2)cc2ccsc21`, for which the IC50 is > 10000 nM (inactive).
As for `CCOc1ccc(CCNC(=O)CSc2cc(=O)n(CC)c3ccccc23)cc1OCC`, the figure is 987 nM.
To `CCOc1ccc(CCNC(=O)CCOc2cc(C)ccc2C)cc1OCC` belongs 67.8 nM; to `CCn1c(C(=O)NCc2ccc3c(c2)OCO3)cc2sccc21`, > 10000 nM (inactive).
To `CCOc1ccc(CCNC(=O)c2cc3sccc3n2CC)cc1OC` belongs 261 nM; to `COc1ccc(CCNC(=O)c2cc(-c3ccccc3)c(N3CCOCC3)s2)cc1OC`, 271 nM and 186 nM.
As for `O=C(NCCc1ccc2c(c1)OCO2)c1ccc(N2CCOCC2)s1`, the IC50 is > 10000 nM (inactive).
As for `CCn1c(C(=O)Nc2ccc3c(c2)OCO3)cc2ccsc21`, the figure is > 10000 nM (inactive); as for `CCOc1ccc(CCNC(=O)Cn2ncn3nc(-c4ccc(OC)cc4)cc3c2=O)cc1OCC`, 129 nM; as for `CCOc1ccc(CCNC(=O)c2cc3ccsc3n2C)cc1OC`, 1090 nM.
As for `CCOc1ccc(CCNC(=O)c2cc3ccccc3n2C)cc1OC`, the figure is 804 nM; as for `CCOc1cc(CCNC(=O)c2ccc(N3CCOCC3)s2)ccc1OC`, 2340 nM.
As for `CCOc1ccc(CCNC(=O)COC(=O)c2cc(OC)c(OC)c(OC)c2)cc1OCC`, the figure is 104 nM; as for `COc1ccc(CCNC(=O)Cn2cccc2C(=O)c2ccccc2C)cc1OC`, > 10000 nM (inactive).
On to `CCOc1ccc(CCNC(=O)c2nnc(Cc3ccc(F)cc3)o2)cc1OCC`, for which the IC50 is 348 nM.
To `CCOc1ccc(CCNC(=O)c2cc(-c3ccccc3)c(N3CCOCC3)s2)cc1OC` belongs 21.6 nM; to `COc1ccc(CNC(=O)c2cc3ccsc3n2C)cc1OC`, > 10000 nM (inactive).
As for `CCOc1ccc(CCNC(=O)CN2CCN(Cc3ccccc3C)C2=O)cc1OCC`, the figure is 344 nM.
As for `COc1ccc(CNC(=O)c2cc(-c3ccccc3)c(N3CCOCC3)s2)cc1OC`, the figure is 101 nM.
On to `CCOc1cc(CCNC(=O)c2cc3ccccc3n2C)ccc1OC`, for which the IC50 is 1040 nM.
As for `CCOc1ccc(CCNC(=O)CCC(=O)N2CCOc3ccc(C)cc32)cc1OCC`, the figure is 235 nM.
To `CCOc1ccc(CCNC(=O)Cn2cccc2C(=O)c2ccccc2)cc1OCC` belongs 418 nM; to `CCOc1ccc(CCNC(=O)CCC(=O)N2CCSc3ccccc32)cc1OCC`, 69.3 nM; to `O=C(NCCc1ccc2c(c1)OCO2)c1cc2sccc2[nH]1`, > 10000 nM (inactive).
As for `CCOc1ccc(CCNC(=O)CCc2nc(-c3ccc(OC)cc3)no2)cc1OCC`, the figure is 206 nM.
